Legend:
[1] = molecular target: ATP-dependent translocase ABCB1 (Homo sapiens, UniProt P08183); assay: Ray2010 Assay 74
Description: (§1) Table S2 shows raw Ki data for the current study combined with data collected from the literature for the ten additional compounds.

[2] = molecular target: Cannabinoid receptor 1 (Homo sapiens, UniProt P21554); assay: Ray2010 Assay 74
Description: as §1

[3] = molecular target: T1, Alpha-2C adrenergic receptor (Homo sapiens, UniProt P18825); assay: Ray2010 Assay 74
T1 sequence (P18825 whole entry): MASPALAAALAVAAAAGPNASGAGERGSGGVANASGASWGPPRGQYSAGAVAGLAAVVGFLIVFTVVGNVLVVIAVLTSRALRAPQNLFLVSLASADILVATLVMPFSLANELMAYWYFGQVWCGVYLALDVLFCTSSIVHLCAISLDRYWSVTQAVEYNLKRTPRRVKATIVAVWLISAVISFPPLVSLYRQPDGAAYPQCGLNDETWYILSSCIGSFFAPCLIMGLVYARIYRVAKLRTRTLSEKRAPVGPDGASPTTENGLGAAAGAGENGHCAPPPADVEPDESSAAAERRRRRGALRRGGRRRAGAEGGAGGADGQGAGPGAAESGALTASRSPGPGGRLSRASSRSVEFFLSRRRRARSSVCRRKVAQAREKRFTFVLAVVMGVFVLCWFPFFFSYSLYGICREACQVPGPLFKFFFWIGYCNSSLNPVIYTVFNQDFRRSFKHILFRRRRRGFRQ
Description: as §1

[4] = molecular target: 5-hydroxytryptamine receptor 7 (Homo sapiens, UniProt P34969); assay: Ray2010 Assay 74
5-hydroxytryptamine receptor 7, sequence (P34969 whole entry): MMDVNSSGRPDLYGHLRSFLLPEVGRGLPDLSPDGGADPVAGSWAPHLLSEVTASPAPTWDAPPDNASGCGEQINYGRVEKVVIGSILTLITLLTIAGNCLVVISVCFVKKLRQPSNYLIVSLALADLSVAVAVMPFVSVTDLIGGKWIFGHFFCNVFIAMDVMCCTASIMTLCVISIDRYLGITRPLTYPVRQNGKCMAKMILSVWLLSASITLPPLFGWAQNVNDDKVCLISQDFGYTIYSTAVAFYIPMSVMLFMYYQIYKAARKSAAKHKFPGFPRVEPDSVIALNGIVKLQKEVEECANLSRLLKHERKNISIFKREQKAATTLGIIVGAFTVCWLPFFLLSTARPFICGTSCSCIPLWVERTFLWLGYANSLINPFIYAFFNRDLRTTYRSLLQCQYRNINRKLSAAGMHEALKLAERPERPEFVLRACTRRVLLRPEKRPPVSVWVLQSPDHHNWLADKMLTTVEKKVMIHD
Description: as §1

[5] = molecular target: Glutamate receptor ionotropic, NMDA 2D (Rattus norvegicus, UniProt Q62645); assay: Ray2010 Assay 64
Description: MK-801 Thalamus + hypothalamus .

[6] = molecular target: Glutamate receptor 4 (Homo sapiens, UniProt P48058); assay: Ray2010 Assay 74
Description: as §1

[7] = molecular target: T2, 5-hydroxytryptamine receptor 2C (Homo sapiens, UniProt P28335); assay: Ray2010 Assay 74
T2 sequence (P28335 whole entry): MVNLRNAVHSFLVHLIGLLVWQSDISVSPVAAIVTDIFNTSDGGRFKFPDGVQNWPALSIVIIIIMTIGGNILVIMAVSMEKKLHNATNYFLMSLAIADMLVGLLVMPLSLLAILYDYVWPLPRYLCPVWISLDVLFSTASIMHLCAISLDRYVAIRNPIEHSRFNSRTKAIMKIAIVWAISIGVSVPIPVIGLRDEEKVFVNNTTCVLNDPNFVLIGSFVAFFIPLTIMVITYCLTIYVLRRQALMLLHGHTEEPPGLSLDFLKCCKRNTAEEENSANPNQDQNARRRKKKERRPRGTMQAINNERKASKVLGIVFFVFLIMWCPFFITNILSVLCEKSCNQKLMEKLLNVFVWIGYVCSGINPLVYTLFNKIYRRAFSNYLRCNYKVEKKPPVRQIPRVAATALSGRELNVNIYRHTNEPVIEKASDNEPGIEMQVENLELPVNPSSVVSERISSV
Description: as §1

[8] = molecular target: Gamma-aminobutyric acid receptor subunit beta-1 (Homo sapiens, UniProt P18505); assay: Ray2010 Assay 74
Gamma-aminobutyric acid receptor subunit beta-1, sequence (P18505 whole entry): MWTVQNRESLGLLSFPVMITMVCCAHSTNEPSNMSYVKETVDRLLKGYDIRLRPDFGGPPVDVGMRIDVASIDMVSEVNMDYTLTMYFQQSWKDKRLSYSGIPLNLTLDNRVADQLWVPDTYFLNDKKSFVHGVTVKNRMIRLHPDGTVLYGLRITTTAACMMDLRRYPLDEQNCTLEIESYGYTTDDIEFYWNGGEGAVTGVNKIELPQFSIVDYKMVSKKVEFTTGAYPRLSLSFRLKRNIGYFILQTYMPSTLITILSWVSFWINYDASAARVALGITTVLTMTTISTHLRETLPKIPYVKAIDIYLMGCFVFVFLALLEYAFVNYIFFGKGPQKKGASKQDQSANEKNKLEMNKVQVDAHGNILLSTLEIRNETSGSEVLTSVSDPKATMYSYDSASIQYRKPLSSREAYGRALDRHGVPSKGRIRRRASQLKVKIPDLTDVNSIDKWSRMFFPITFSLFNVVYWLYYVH
Description: as §1

[9] = molecular target: Neuronal acetylcholine receptor subunit alpha-3/beta-2 (Homo sapiens, UniProt P17787+P32297); assay: Ray2010 Assay 74
Description: as §1

[10] = molecular target: Metabotropic glutamate receptor 1 (Homo sapiens, UniProt Q13255); assay: Ray2010 Assay 74
Metabotropic glutamate receptor 1, sequence (Q13255 whole entry): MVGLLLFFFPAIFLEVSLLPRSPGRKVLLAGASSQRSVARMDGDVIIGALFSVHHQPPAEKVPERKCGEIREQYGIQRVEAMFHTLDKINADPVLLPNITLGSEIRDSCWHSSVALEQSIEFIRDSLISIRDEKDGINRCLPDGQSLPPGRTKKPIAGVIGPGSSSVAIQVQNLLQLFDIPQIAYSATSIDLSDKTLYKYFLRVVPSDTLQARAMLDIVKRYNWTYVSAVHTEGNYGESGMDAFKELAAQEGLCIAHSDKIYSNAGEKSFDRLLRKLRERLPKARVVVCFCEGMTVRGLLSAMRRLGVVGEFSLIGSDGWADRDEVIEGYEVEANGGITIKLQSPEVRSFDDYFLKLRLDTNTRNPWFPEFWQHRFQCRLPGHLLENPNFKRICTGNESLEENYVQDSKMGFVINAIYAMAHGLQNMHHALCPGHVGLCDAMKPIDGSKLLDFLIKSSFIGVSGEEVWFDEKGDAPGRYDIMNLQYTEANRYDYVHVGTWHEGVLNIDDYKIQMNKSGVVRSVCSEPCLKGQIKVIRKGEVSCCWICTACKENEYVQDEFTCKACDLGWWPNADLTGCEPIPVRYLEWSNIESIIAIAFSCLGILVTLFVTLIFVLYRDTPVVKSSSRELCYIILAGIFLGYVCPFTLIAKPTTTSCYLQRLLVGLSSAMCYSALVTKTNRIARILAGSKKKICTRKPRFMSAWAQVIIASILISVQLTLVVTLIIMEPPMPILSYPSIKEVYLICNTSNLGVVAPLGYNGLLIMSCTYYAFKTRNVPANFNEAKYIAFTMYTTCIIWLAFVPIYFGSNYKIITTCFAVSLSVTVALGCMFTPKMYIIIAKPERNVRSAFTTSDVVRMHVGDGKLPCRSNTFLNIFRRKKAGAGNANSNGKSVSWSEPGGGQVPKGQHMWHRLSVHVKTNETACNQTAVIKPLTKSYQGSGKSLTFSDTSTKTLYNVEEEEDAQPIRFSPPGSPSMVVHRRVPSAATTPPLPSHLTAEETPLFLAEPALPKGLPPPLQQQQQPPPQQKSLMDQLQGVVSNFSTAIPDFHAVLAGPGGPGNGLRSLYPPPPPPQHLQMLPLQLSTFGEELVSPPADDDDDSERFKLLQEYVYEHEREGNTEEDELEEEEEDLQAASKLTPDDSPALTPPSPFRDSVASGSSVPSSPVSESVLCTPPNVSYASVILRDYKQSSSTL
Description: as §1

[11] = molecular target: Neuronal acetylcholine receptor subunit alpha-2/beta-2 (Homo sapiens, UniProt P17787+Q15822); assay: Ray2010 Assay 74
Description: as §1

[12] = molecular target: Metabotropic glutamate receptor 2 (Homo sapiens, UniProt Q14416); assay: Ray2010 Assay 74
Metabotropic glutamate receptor 2, sequence (Q14416 whole entry): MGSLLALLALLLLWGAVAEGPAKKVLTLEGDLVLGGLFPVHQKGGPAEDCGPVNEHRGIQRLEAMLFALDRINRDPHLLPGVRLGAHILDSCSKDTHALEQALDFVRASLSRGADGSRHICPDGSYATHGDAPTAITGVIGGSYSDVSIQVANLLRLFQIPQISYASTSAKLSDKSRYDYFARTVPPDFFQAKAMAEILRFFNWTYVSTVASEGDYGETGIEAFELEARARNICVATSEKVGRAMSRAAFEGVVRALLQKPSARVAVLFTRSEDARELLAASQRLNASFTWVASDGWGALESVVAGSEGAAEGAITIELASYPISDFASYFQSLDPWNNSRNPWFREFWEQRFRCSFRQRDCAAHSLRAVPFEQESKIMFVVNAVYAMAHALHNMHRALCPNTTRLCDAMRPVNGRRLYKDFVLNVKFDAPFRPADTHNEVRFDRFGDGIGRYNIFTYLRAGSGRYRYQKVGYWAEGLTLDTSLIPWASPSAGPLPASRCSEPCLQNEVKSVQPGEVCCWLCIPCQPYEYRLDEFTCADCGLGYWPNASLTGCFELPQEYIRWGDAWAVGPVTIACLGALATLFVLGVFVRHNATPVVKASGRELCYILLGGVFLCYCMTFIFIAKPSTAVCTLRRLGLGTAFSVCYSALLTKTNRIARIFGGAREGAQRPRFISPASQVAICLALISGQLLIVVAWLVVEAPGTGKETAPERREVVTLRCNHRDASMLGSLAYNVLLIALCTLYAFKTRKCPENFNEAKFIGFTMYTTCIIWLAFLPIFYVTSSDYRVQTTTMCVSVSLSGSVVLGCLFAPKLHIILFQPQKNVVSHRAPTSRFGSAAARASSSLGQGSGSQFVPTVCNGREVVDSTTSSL
Description: as §1

[13] = molecular target: Neuronal acetylcholine receptor subunit alpha-4/beta-4 (Homo sapiens, UniProt P30926+P43681); assay: Ray2010 Assay 74
Description: as §1

[14] = molecular target: T3, Muscarinic acetylcholine receptor M4 (Homo sapiens, UniProt P08173); assay: Ray2010 Assay 74
T3 sequence (P08173 whole entry): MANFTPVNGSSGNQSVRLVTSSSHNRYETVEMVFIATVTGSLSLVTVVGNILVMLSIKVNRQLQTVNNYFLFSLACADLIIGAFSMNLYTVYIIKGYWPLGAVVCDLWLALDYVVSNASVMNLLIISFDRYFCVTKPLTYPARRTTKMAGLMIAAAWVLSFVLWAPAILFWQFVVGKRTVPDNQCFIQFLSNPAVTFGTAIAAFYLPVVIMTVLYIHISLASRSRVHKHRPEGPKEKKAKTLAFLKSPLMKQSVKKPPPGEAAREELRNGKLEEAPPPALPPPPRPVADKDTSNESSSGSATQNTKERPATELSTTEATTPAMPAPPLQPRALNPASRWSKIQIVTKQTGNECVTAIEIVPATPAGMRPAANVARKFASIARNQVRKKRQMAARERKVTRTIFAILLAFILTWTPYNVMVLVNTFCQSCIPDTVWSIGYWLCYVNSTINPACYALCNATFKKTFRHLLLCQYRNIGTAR
Description: as §1

[15] = molecular target: Neuronal acetylcholine receptor subunit alpha-2/beta-4 (Homo sapiens, UniProt P30926+Q15822); assay: Ray2010 Assay 74
Description: as §1

[16] = molecular target: Metabotropic glutamate receptor 5 (Homo sapiens, UniProt P41594); assay: Ray2010 Assay 74
Description: as §1

[17] = molecular target: Metabotropic glutamate receptor 4 (Homo sapiens, UniProt Q14833); assay: Ray2010 Assay 74
Description: as §1

Cannabinoid receptor 1, sequence (P21554 whole entry): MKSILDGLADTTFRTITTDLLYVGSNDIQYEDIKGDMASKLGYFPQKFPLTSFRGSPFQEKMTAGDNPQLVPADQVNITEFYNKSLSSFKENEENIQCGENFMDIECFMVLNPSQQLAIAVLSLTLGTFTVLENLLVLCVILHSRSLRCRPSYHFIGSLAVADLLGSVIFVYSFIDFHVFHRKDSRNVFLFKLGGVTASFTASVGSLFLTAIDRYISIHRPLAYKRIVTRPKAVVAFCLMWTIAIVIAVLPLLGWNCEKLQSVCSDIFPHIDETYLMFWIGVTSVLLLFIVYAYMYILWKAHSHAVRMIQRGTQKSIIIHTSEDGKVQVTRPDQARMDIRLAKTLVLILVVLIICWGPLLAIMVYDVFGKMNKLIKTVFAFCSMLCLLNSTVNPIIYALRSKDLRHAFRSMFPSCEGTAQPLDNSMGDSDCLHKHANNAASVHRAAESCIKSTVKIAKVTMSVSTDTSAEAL
ATP-dependent translocase ABCB1, sequence (P08183 whole entry): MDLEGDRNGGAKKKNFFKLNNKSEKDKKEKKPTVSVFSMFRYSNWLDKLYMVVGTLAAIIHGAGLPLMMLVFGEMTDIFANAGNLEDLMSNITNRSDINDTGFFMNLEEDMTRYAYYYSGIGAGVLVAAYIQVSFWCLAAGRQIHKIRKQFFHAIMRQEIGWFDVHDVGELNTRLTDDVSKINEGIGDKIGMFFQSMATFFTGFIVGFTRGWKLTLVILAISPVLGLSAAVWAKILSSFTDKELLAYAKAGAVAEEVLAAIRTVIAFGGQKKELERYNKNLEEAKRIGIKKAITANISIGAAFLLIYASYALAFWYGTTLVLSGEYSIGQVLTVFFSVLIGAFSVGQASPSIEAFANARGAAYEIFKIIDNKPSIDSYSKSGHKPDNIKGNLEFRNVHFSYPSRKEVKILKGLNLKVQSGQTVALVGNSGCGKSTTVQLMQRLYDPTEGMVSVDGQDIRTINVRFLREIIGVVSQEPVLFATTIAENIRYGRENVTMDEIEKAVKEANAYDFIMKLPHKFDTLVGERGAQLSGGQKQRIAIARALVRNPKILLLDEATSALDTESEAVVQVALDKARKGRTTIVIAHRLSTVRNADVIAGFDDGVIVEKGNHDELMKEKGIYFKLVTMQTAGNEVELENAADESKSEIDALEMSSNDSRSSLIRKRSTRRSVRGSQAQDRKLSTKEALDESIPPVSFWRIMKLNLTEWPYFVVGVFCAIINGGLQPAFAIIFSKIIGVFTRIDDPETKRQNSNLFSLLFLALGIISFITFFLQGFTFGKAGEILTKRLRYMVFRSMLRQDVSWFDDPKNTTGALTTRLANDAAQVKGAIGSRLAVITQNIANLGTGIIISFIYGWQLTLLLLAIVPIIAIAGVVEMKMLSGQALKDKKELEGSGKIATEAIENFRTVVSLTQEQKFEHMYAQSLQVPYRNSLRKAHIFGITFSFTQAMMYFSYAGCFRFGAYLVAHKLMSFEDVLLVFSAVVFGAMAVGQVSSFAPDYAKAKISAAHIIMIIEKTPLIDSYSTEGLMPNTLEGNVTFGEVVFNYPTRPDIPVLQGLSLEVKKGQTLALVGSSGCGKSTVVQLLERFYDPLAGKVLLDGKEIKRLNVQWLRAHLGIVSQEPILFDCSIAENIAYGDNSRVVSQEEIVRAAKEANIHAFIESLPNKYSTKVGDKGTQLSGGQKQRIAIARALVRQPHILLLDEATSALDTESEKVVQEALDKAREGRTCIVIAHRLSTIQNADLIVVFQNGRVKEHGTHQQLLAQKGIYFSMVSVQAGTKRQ

## COc1cc(CC(C)N)cc(OC)c1OC (stereo not given)
[1]
  Ki: > 10 µM
[2]
  Ki: > 10 µM
[3]
  Ki: 5.01 µM
[4]
  Ki: 0.749 µM

## CC[C@H]1C[C@@H]2C[C@H]3c4[nH]c5ccc(OC)cc5c4CCN(C2)[C@@H]13
[5]
  Ki: 1.98 µM
[6]
  Ki: > 10 µM
[7]
  Ki: > 10 µM
[8]
  Ki: > 10 µM

## CCc1cc(OC)c(CC(C)N)cc1OC (stereo not given)
[1]
  Ki: > 10 µM
[2]
  Ki: > 10 µM
[3]
  Ki: 1.45 µM
[4]
  Ki: 1.23 µM

## CNC(C)Cc1ccc2c(c1)OCO2 (stereo not given) [mdma]
[9]
  Ki: > 10 µM
[10]
  Ki: > 10 µM
[11]
  Ki: > 10 µM
[12]
  Ki: > 10 µM
[2]
  Ki: > 10 µM
[13]
  Ki: > 10 µM
[14]
  Ki: 8.25 µM
[8]
  Ki: > 10 µM
[3]
  Ki: 1.35 µM
[15]
  Ki: > 10 µM
[16]
  Ki: > 10 µM
[4]
  Ki: > 10 µM
[17]
  Ki: > 10 µM

From BindingDB's records for PubMed 20126400 (University of Oklahoma, 2010)
